In brackets after ≈: the same amount, converted by molar mass. Several values for one entry are separate records, joined by “and”; a condition that tells them apart may be missing. Equal values may be shown once.

The source of these data is DBAASP.

Some test systems named below: Candida glabrata 090902; Candida albicans SC5314; Candida krusei ATCC 6258.
Assay in all cases: ≥ marks a high value that may be exact or a test limit, other limits are often not marked, values filed in µg/mL are converted to µM
The subject of experiment [1] is Escherichia coli ATCC 25922.
Experiment [2] concerns Klebsiella pneumoniae ATCC 700603.
The subject of experiment [3] is Pseudomonas aeruginosa ATCC 27853.
Experiment [4] relates to Staphylococcus aureus ATCC 29213.
Experiment [5] deals with Staphylococcus aureus ATCC 33591.
The subject of experiment [6] is Staphylococcus aureus ATCC 700699.
The subject of experiment [7] is Enterococcus faecalis 981.
Experiment [8] concerns Nocardia asteroides 201118.
Experiment [9] deals with Staphylococcus aureus ATCC 25923.
Experiment [10] has as its system Bacillus subtilis ATCC 6633.
For experiment [11], the system named is Escherichia coli ATCC 10536.
Experiment [12] has as its system Escherichia coli DH5alpha.
The subject of experiment [13] is Staphylococcus aureus ATCC 9144.
Experiment [14] deals with Candida albicans ATCC 90028.
In experiment [15] the test system is Candida parapsilosis ATCC 22019.

Take `CC[C@H](C)[C@H](NC(=O)[C@H](CC(=O)O)NC(=O)[C@H](CCCCN)NC(=O)[C@H](C)NC(=O)[C@H](C)NC(=O)CNC(=O)[C@H](CCCCN)NC(=O)[C@H](CC(C)C)NC(=O)[C@@H](NC(=O)[C@H](CC(=O)O)NC(=O)[C@@H](NC(=O)[C@@H](NC(=O)[C@H](C)N)C(C)C)C(C)C)[C@@H](C)CC)C(=O)N[C@@H](C)C(=O)NCC(=O)N[C@@H](Cc1cnc[nH]1)C(=O)N[C@@H](CC(C)C)C(=O)N[C@@H](C)C(=O)N[C@@H](CO)C(=O)N[C@@H](CCCCN)C(=O)N[C@H](C(=O)N[C@@H](CCSC)C(=O)N[C@@H](CC(N)=O)C(=O)N[C@@H](CCCCN)C(=O)N[C@@H](CC(C)C)C(N)=O)C(C)C` [AVVDILKGAAKDIAGHLASKVMNKL]: the MIC in [1] was > 100 µM; in [2], > 100 µM; in [3], > 100 µM; in experiment [4], > 100 µM; in [5], ≥ 100 µM; in [6], ≥ 100 µM.

On to `CC(C)C[C@H](NC(=O)[C@H](CC(C)C)NC(=O)CNC(=O)[C@H](CO)NC(=O)[C@H](CC(C)C)NC(=O)[C@H](CC(C)C)NC(=O)[C@H](CCCCN)NC(=O)CNC(=O)[C@@H](NC(=O)[C@H](Cc1ccccc1)NC(=O)[C@@H]1CCCN1C(=O)[C@H](CC(C)C)NC(=O)[C@@H](N)Cc1ccccc1)C(C)C)C(N)=O` [FLPFVGKLLSGLL], for which the MIC in the experiment with Candida glabrata 090902 was ≥ 100 µM; in experiment [7], 25 µM (≈ 35.1 µg/mL); in [8] it was 12.5 µM (≈ 17.5 µg/mL); in experiment [9], 12.5 µM (≈ 17.5 µg/mL).

Consider `CC[C@H](C)[C@H](NC(=O)[C@H](CCCN=C(N)N)NC(=O)[C@@H](NC(=O)[C@@H](NC(=O)[C@@H]1CCCN1C(=O)[C@@H](NC(=O)[C@@H](NC(=O)[C@@H](NC(=O)[C@@H]1CCCN1C(=O)CNC(=O)[C@H](Cc1ccc(O)cc1)NC(=O)[C@H](CCCCN)NC(=O)[C@H](CCCCN)NC(=O)[C@H](Cc1c[nH]c2ccccc12)NC(=O)[C@H](C)NC(=O)[C@H](CCCN=C(N)N)NC(=O)[C@H](CC(C)C)NC(=O)[C@H](C)NC(=O)[C@H](CCCCN)NC(=O)[C@H](CCCN=C(N)N)NC(=O)CNC(=O)[C@H](CC(C)C)NC(=O)[C@H](CO)NC(=O)[C@H](CCCN=C(N)N)NC(=O)[C@H](CC(C)C)NC(=O)CNC(=O)CN)[C@@H](C)CC)[C@@H](C)CC)C(C)C)[C@@H](C)CC)[C@@H](C)CC)C(N)=O` [GGLRSLGRKALRAWKKYGPIIVPIIRI], for which the MIC was found to be 1.5 µM (≈ 4.55 µg/mL) in experiment [10], 2.3 µM (≈ 6.97 µg/mL) in experiment [11], 2.6 µM (≈ 7.88 µg/mL) in experiment [12] and 3.2 µM (≈ 9.7 µg/mL) in experiment [13].

Regarding `CC[C@H](C)[C@H](NC(=O)[C@@H](NC(=O)[C@@H]1CCCN1C(=O)[C@H](CO)NC(=O)[C@H](CC(C)C)NC(=O)[C@H](CCCCN)NC(=O)[C@H](CCCCN)NC(=O)[C@H](Cc1ccccc1)NC(=O)[C@H](CC(C)C)NC(=O)[C@H](CCCCN)NC(=O)[C@H](CCCCN)NC(=O)[C@H](C)NC(=O)[C@H](CCCCN)NC(=O)[C@H](CCCCN)NC(=O)[C@H](CCCN=C(N)N)NC(=O)[C@H](Cc1ccccc1)NC(=O)[C@H](CCCN=C(N)N)NC(=O)[C@H](CCCCN)NC(=O)[C@H](C)NC(=O)[C@H](CCCN=C(N)N)NC(=O)CN)C(C)C)C(=O)N1CCC[C@H]1C(=O)N[C@@H](CC(C)C)C(=O)N[C@@H](CC(C)C)C(=O)N[C@@H](Cc1cnc[nH]1)C(=O)N[C@@H](CC(C)C)C(N)=O` [GRAKRFRKKAKKLFKKLSPVIPLLHL], the minimal inhibitory concentration (MIC) in experiment [11] is 2.9 µM and 7.3 µM; in experiment [12], 2.9 µM (≈ 8.91 µg/mL); in experiment [13], 2.7 µM (≈ 8.3 µg/mL).

For `CC[C@H](C)[C@H](NC(=O)[C@@H](NC(=O)[C@@H]1CCCN1C(=O)[C@H](CO)NC(=O)[C@H](CC(C)C)NC(=O)[C@H](CCCCN)NC(=O)[C@H](CCCCN)NC(=O)[C@H](Cc1ccccc1)NC(=O)[C@H](CC(C)C)NC(=O)[C@H](CCCCN)NC(=O)[C@H](CCCCN)NC(=O)[C@H](C)NC(=O)[C@H](CCCCN)NC(=O)[C@H](CCCCN)NC(=O)[C@H](CCCN=C(N)N)NC(=O)[C@H](Cc1ccccc1)NC(=O)[C@H](CCCN=C(N)N)NC(=O)[C@H](CCCCN)NC(=O)[C@H](Cc1ccccc1)NC(=O)[C@H](CCCN=C(N)N)NC(=O)CN)C(C)C)C(=O)N1CCC[C@H]1C(=O)N[C@@H](CC(C)C)C(=O)N[C@@H](CC(C)C)C(=O)N[C@@H](Cc1cnc[nH]1)C(=O)N[C@@H](CC(C)C)C(N)=O` [GRFKRFRKKAKKLFKKLSPVIPLLHL], the minimum inhibitory concentration (MIC) in experiment [11] is 3.2 µM and 7.4 µM; in experiment [12] it was 2.9 µM (≈ 9.13 µg/mL); in [13], 2.8 µM (≈ 8.82 µg/mL).

On to `CC[C@H](C)[C@H](NC(=O)[C@@H](NC(=O)CN)C(C)C)C(=O)N[C@@H](CCCCN)C(=O)N[C@@H](C)C(=O)N[C@@H](C)C(=O)N[C@@H](CCCCN)C(=O)N[C@@H](CCCCN)C(=O)N[C@H](C(=O)N[C@H](C(=O)N[C@@H](CCCCN)C(=O)N[C@H](C(=O)N[C@@H](CC(C)C)C(=O)N[C@@H](CCCCN)C(=O)N[C@@H](CCCCN)C(=O)N[C@@H](CC(C)C)C(=O)N[C@@H](Cc1ccccc1)C(N)=O)C(C)C)C(C)C)C(C)C` [GVIKAAKKVVKVLKKLF], for which the minimal inhibitory concentration (MIC) is ≥ 34.2 µM in experiment [14], 17.1 µM (≈ 32 µg/mL) against Candida albicans SC5314, 17.1 µM (≈ 32 µg/mL) in the experiment on Candida krusei ATCC 6258 and 8.56 µM (≈ 16 µg/mL) in experiment [15].

For the compound `CC[C@H](C)[C@H](NC(=O)[C@@H](NC(=O)CN)C(C)C)C(=O)N[C@@H](CCCCN)C(=O)N[C@@H](C)C(=O)N[C@@H](C)C(=O)N[C@@H](CCCCN)C(=O)N[C@@H](CCCCN)C(=O)N[C@H](C(=O)N[C@H](C(=O)N[C@@H](CCCCN)C(=O)N[C@H](C(=O)N[C@@H](CC(C)C)C(=O)N[C@@H](CCCCN)C(=O)N[C@@H](CC(N)=O)C(=O)N[C@@H](CC(C)C)C(=O)N[C@@H](Cc1ccccc1)C(N)=O)C(C)C)C(C)C)C(C)C` [GVIKAAKKVVKVLKNLF], the MIC in experiment [14] is ≥ 34.5 µM; against Candida albicans SC5314, 17.2 µM (≈ 32 µg/mL); in the experiment on Candida krusei ATCC 6258, 17.2 µM (≈ 32 µg/mL); in experiment [15], 17.2 µM (≈ 32 µg/mL).

Take `CC[C@H](C)[C@H](NC(=O)[C@H](C)NC(=O)[C@H](CCCCN)NC(=O)[C@H](C)NC(=O)[C@H](C)NC(=O)CNC(=O)[C@H](CCCCN)NC(=O)[C@H](CC(C)C)NC(=O)[C@@H](NC(=O)[C@H](CC(=O)O)NC(=O)[C@@H](NC(=O)[C@@H](NC(=O)CN)C(C)C)C(C)C)[C@@H](C)CC)C(=O)N[C@@H](C)C(=O)NCC(=O)N[C@@H](Cc1cnc[nH]1)C(=O)N[C@@H](CC(C)C)C(=O)N[C@@H](C)C(=O)N[C@@H](CO)C(=O)N[C@@H](CCCCN)C(=O)N[C@H](C(=O)N[C@@H](CCSC)C(=O)N[C@@H](CC(N)=O)C(=O)N[C@@H](CCCCN)C(=O)N[C@@H](CC(C)C)C(N)=O)C(C)C` [GVVDILKGAAKAIAGHLASKVMNKL]: the minimal inhibitory concentration (MIC) in experiment [1] was 3.12 µM (≈ 7.81 µg/mL); in experiment [2] it was 25 µM (≈ 62.6 µg/mL); in [3] it was 50 µM (≈ 125 µg/mL); in experiment [4], 100 µM (≈ 250 µg/mL); in experiment [5], 25 µM (≈ 62.6 µg/mL); in experiment [6] it was ≥ 50 µM.

`CC[C@H](C)[C@H](NC(=O)[C@H](CC(=O)O)NC(=O)[C@H](CCCCN)NC(=O)[C@H](C)NC(=O)[C@H](C)NC(=O)CNC(=O)[C@H](CCCCN)NC(=O)[C@H](CC(C)C)NC(=O)[C@@H](NC(=O)[C@H](CC(=O)O)NC(=O)[C@@H](NC(=O)[C@@H](NC(=O)CN)C(C)C)C(C)C)[C@@H](C)CC)C(=O)N[C@@H](C)C(=O)NCC(=O)N[C@@H](Cc1cnc[nH]1)C(=O)N[C@@H](CC(C)C)C(=O)N[C@@H](C)C(=O)N[C@@H](C)C(=O)N[C@@H](CCCCN)C(=O)N[C@H](C(=O)N[C@@H](CCSC)C(=O)N[C@@H](CC(N)=O)C(=O)N[C@@H](CCCCN)C(=O)N[C@@H](CC(C)C)C(N)=O)C(C)C` [GVVDILKGAAKDIAGHLAAKVMNKL]: the minimal inhibitory concentration (MIC) in experiment [1] was 25 µM (≈ 63.3 µg/mL); in experiment [2], 100 µM (≈ 253 µg/mL); in [3], 100 µM (≈ 253 µg/mL); in experiment [4], > 100 µM; in experiment [5] it was ≥ 100 µM; in experiment [6] it was ≥ 100 µM.
